According to patent publication US20260193238A1, “PHARMACEUTICAL COMPOUNDS AS PARP7 AND/OR PARP1 INHIBITORS” (Duke Street Bio Limited, priority 2022, published 2026):

target: PARP1 (Homo sapiens, UniProt P09874); experiment: PARP1 biochemical DELFIA assay (auto-PARylation); details: Table 1A
Sequence (P09874 whole entry): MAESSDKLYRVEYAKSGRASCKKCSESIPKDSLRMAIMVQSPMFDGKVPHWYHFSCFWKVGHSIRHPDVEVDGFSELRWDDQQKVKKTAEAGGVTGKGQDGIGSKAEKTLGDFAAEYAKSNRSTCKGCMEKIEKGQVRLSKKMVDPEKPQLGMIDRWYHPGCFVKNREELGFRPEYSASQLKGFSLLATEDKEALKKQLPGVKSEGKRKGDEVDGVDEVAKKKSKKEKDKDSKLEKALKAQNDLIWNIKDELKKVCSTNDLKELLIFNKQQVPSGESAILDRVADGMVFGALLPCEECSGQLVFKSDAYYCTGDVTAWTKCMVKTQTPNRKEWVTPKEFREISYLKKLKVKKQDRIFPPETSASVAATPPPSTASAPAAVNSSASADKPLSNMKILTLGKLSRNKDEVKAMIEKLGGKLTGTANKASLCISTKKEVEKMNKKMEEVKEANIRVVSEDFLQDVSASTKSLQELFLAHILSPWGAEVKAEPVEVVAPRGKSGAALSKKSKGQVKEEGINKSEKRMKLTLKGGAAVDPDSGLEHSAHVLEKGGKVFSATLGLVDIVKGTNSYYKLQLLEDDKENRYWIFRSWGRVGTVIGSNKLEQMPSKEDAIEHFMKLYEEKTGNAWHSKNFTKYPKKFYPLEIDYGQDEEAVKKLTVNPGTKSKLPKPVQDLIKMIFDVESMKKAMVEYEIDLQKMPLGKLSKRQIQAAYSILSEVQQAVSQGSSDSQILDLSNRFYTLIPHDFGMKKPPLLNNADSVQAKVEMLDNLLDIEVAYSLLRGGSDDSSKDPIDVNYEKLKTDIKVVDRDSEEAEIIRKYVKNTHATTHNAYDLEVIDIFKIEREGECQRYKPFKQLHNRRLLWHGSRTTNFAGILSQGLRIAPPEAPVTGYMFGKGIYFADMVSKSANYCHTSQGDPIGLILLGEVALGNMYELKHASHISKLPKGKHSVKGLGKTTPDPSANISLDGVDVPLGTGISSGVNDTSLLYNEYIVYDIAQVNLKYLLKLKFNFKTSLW

Row | SMILES | IC50
1 | O=C(CN1CCCC1c1cc(C(F)(F)F)c(=O)[nH]n1)N1CCN(c2nc3cc(F)ccc3o2)CC1 (single isomer, unassigned) [Compound 93b] | 1000 to 10000 nM
2 | N#Cc1ccc(N2CCN(C(=O)CN3CCCC3c3c[nH]c(=O)c(C(F)(F)F)c3)CC2)nc1 (single isomer, unassigned) [Compound 77a] | 1000 to 10000 nM
3 | O=C(CN1CCOCC1c1cc(C(F)(F)F)c(=O)[nH]n1)N1CCN(c2ncc(C(F)(F)F)cn2)CC1 (single isomer, unassigned) [Compound 88b] | 100 to 1000 nM
4 | O=C(CN1CCCC1c1cc(C(F)(F)F)c(=O)[nH]n1)NC1CCN(c2ncc(C(F)(F)F)cn2)CC1 (single isomer, unassigned) [Compound 33b] | 100 to 1000 nM
5 | O=C(CN1CCCC1c1c[nH]c(=O)c(C(F)(F)F)c1)N1CCN(c2ncc(Cl)cn2)CC1 (single isomer, unassigned) [Compound 74b] | 1000 to 10000 nM
6 | O=C(CN1CCCC1c1cc(C(F)(F)F)c(=O)[nH]n1)N1CCN(c2ncc(F)cc2F)CC1 (single isomer, unassigned) [Compound 83a] | 100 to 1000 nM
7 | O=C(CN1CCCC1c1cc(C(F)(F)F)c(=O)[nH]n1)N1CCN(c2ccc(C(F)(F)F)cn2)CC1 (single isomer, unassigned) [Compound 42b] | 10 to 100 nM
8 | N#Cc1cc(C2CCCN2CC(=O)N2CCN(c3nc4ccc(F)cc4o3)CC2)n[nH]c1=O (single isomer, unassigned) [Compound 111a] | 10 to 100 nM

Continued, values first:

Row | IC50 | SMILES
9 | 10 to 100 nM | O=C(CN1CCCC1c1cc(C(F)(F)F)c(=O)[nH]n1)C1CCN(c2ncc(C(F)(F)F)cn2)CC1 (single isomer, unassigned) [Compound 75a]
10 | 1000 to 10000 nM | O=C(CN1CCCC1c1cc(C(F)(F)F)c(=O)[nH]n1)N1CCN(c2ncc(C3CC3)cn2)CC1 (single isomer, unassigned) [Compound 69b]
11 | > 10000 nM | O=C(CN1CCCC1c1cc(C(F)(F)F)c(=O)[nH]n1)N1CCN(c2ncc(F)cc2C(F)(F)F)CC1 (single isomer, unassigned) [Compound 120b]
12 | 10 to 100 nM | O=C(CN1CCCC1c1cc(C(F)(F)F)c(=O)[nH]n1)N1CCN(c2ncc(Cl)cn2)CC1 (single isomer, unassigned) [Compound 35a]

test system: PARP1 over PARP2; experiment: not given; details: PARP1 inhibitor and trapper; cited from earlier work

Row | SMILES | selectivity over PARP2
13 | CCc1cc2ncc(CN3CCN(c4ccc(C(=O)NC)nc4)CC3)cc2[nH]c1=O [AZD5305] | 500 fold
